Test results from paper PMC3242765, “Inhibitors of Alphavirus Entry and Replication Identified with a Stable Chikungunya Replicon Cell Line and Virus-Based Assays” (PLoS ONE, 2011).
Like-named read-outs stand apart in the source and are kept apart here.

Assays:
BHK cells = experiment: Cell viability ATP assay, BHK cells; format: cell-based, hamster; conditions: read-out: Cell viability IC50
SFV-Rluc [1] = conditions: for IC50: read-out: SFV IC50
SINV = experiment: CPE reduction assay, SINV (WST-1); format: cell-based, Sindbis virus (SINV); conditions: read-out: SINV IC50 (CPE reduction)
SFV [2] = experiment: CPE reduction assay, SFV (WST-1); format: cell-based, Semliki Forest virus (SFV); conditions: read-out: SFV IC50 (CPE reduction)
BHK-CHIKV-NCT cells = experiment: Cell viability ATP assay, BHK-CHIKV-NCT cells; format: cell-based, hamster; conditions: Mesocricetus auratus, 48 h, read-out: Cell viability IC50, ATP assay, 48 h exposure of BHK-CHIKV-NCT cells, up to 200 µM
SFV [3] = experiment: Viral yield analysis using a plaque assay; format: cell-based, Semliki Forest virus (SFV); conditions: for Decrease of SFV titer versus untreated control: 50 µM compound, MOI 0.01, 16 h; for SFV yield: BHK cells, MOI 0.01, 50 µM compound, 16 h, untreated control 1.4×10^9 PFU/ml
CHIKV replicon = experiment: microbe, parasite or virus in culture; format: cell-based, Chikungunya virus (CHIKV)
SFV-Rluc [4] = experiment: microbe, parasite or virus in culture; conditions: Semliki Forest virus, BHK, 14 h, read-out: SFV IC50
CHIKV-Rluc = experiment: microbe, parasite or virus in culture; format: cell-based, Chikungunya virus (CHIKV); conditions: read-out: CHIKV-Rluc IC50
SFVts9-Rluc = format: cell-based, Semliki Forest virus (SFV)
[5] = Mesocricetus auratus, BHK, 48 h
[6] = Semliki Forest virus, BHK, 22 h
[7] = Chikungunya virus, 48 h, read-out: EGFP IC50
[8] = Chikungunya virus, 48 h, read-out: Rluc IC50

Structure (SMILES) | IC50 (BHK cells; [5]) [µM] | SI (selectivity index) (SFV-Rluc [1]) | IC50 (SINV; Sindbis virus, BHK, 24 h) [µM] | IC50 (SFV [2]; [6]) [µM] | SFV yield (SFV [3]) | IC50 (SFV-Rluc [4]) [µM] | IC50 (CHIKV-Rluc; Chikungunya virus, BHK, 16 h) [µM] | Effect on SFV entry (Rluc activity) (SFVts9-Rluc) | SFV replication % left (surviving fraction, remaining percentage of SFV replication) (SFV-Rluc [1]) [%] | CHIKV replicon % left (CHIKV replicon) [%] | other results
Nc1ncnc2c1ncn2[C@@H]1O[C@H](CO)[C@@H](N)[C@H]1O [3′-NH2-3′-deoxyadenosine, 3′-amino-3′-deoxyadenosine] | 174 | 10.7 | 23.4 | 17.5 | 2.7×10^7 PFU/ml | 16.2 | – | – | – | – | IC50 (BHK-CHIKV-NCT cells): 187 µM; Decrease of SFV titer versus untreated control (SFV [3]): two orders of magnitude; IC50 (CHIKV replicon; [7]): 34 µM; IC50 (CHIKV replicon; [8]): 62.4 µM
C#C[C@]1(O)CC[C@H]2[C@@H]3CCc4cc(O)ccc4[C@H]3CC[C@@]21C [17-Ethinylestradiol] | > 200 | >21.1 | 56.8 | 63 | 9.0×10^8 PFU/ml | 9.5 | – | – | – | – | –
O=c1cc(-c2ccc(O)cc2)oc2cc(O)cc(O)c12 [Apigenin] | > 200 | >9.7 | 7.2 | 4.4 | 6.7×10^7 PFU/ml | 20.6 | 70.8 | None of the other compounds, including the flavonoids apigenin, chrysin, naringenin and silybin, inhibited SFV entry | 18.0 | 8.7 | IC50 (BHK-CHIKV-NCT cells): > 200 µM; IC50 (CHIKV replicon; [7]): 22.5 µM; IC50 (CHIKV replicon; [8]): 28.3 µM
COc1c2ccoc2cc2oc(=O)ccc12 [Bergapten] | > 200 | >24.6 | 16.2 | 9.2 | 1.2×10^8 PFU/ml | 8.1 | – | – | – | – | –
CN(C)CCCN1c2ccccc2Sc2ccc(Cl)cc21 [Chlorpromazine] | 67.3 | – | – | – | – | 15.7 | 39.4 | decreased the Rluc activity | – | – | –
CCN(CC)c1ccc2cc(-c3nc4ccccc4n3C)c(=O)oc2c1 [Coumarin 30] | – | – | – | – | 5.0×10^8 PFU/ml | – | – | – | 12.3 | 44.1 | IC50 (BHK cells; ATP assay, 48 h exposure of BHK cells): 92.4 µM; IC50 (CHIKV-Rluc): 6.4 µM; IC50 (SFV-Rluc [1]): 0.4 µM; IC50 (SINV; BHK cells, MOI 0.01, 24 h post-infection, WST-1, 200 µM to 0.1 µM): 11.8 µM; IC50 (SFV [2]; BHK cells, MOI 0.01, 22 h post-infection, WST-1, 200 µM to 0.1 µM): 5.5 µM
CCN(CC)C(C)CN1c2ccccc2Sc2ccccc21 (stereo not shown) [Ethopropazine] | 167 | 10.4 | 21.4 | 17.1 | 8.1×10^8 PFU/ml | 16 | 61.5 | decreased the Rluc activity | – | – | –
CN1CCC(CN2c3ccccc3Sc3ccccc32)C1 (stereo not shown) [Methdilazine] | 63.8 | 5.6 | – | – | – | 11.3 | 84.5 | decreased the Rluc activity | 22.5 | 19.1 | –
COc1c(C)c2c(c(O)c1C/C=C(\C)CCC(=O)O)C(=O)OC2 [Mycophenolic acid, reference compound] | > 200 | >1.7 | 44.4 | 39 | 1.2×10^8 PFU/ml | ~100 | – | – | – | – | IC50 (SFV-Rluc [1]): 121 µM; IC50 (BHK-CHIKV-NCT cells): > 200 µM; Decrease of SFV titer versus untreated control (SFV [3]): approximately one order of magnitude; Change of replicon IC50 with guanosine supplementation (CHIKV replicon): increased by at least two orders of magnitude; IC50 (CHIKV replicon; [7]): ~1 µM; IC50 (CHIKV replicon; read-out: EGFP IC50): 1.5 µM
N/C(CC(O)COc1cccc2ccccc12)=N/O (stereo not shown) [Nadoxolol] | > 200 | >12.2 | 8.2 | 15.2 | 9.2×10^7 PFU/ml | 16.4 | – | – | 20.8 | 69.2 | –
OCCN1CCN(CCCN2c3ccccc3C=Cc3ccccc32)CC1 [Opipramol] | > 200 | >10.2 | 31 | 25 | 2.5×10^8 PFU/ml | 19.7 | – | – | 27.5 | 101.5 | –
OCCN1CCN(CCCN2c3ccccc3Sc3ccc(Cl)cc32)CC1 [Perphenazine] | 155 | 6.2 | – | – | – | 25.1 | 48.1 | decreased the Rluc activity | 10.6 | 88.1 | –
CN(C)CCCN1c2ccccc2Sc2cccnc21 [Prothipendyl] | > 200 | >24.4 | 46.5 | 34.2 | 4.0×10^8 PFU/ml | 8.2 | 97.3 | – | – | – | IC50 (BHK-CHIKV-NCT cells): 186 µM; IC50 (CHIKV replicon; [7]): 135 µM; IC50 (CHIKV replicon; [8]): 93.3 µM
O=C(O)c1ccc(O)c(O)c1 [Protocatechuic acid] | > 200 | >25.0 | > 200 | > 200 | 2.4×10^9 PFU/ml | 8 | – | – | 21.1 | 105.4 | –
Oc1cccc(O)c1O [Pyrogallol] | > 200 | >10.7 | > 200 | > 200 | 1.1×10^9 PFU/ml | 18.7 | – | – | 22.7 | 89.2 | –
NC(=O)c1ncn([C@@H]2O[C@H](CO)[C@@H](O)[C@H]2O)n1 [Ribavirin] | > 200 | – | 51.8 | 28.1 | 2.1×10^8 PFU/ml | ~100 | – | – | – | – | IC50 (SFV-Rluc [1]): 95.1 µM; IC50 (BHK-CHIKV-NCT cells): > 200 µM; Decrease of SFV titer versus untreated control (SFV [3]): approximately one order of magnitude; Change of replicon IC50 with guanosine supplementation (CHIKV replicon): increased by at least two orders of magnitude; IC50 (CHIKV replicon; [7]): 8.8 µM; IC50 (CHIKV replicon; [8]): 25.4 µM
CCSc1ccc2c(c1)N(CCCN1CCN(C)CC1)c1ccccc1S2 [Thiethylperazine] | 83.1 | 5.5 | – | – | – | 15 | 63.8 | decreased the Rluc activity | 26.5 | 101.1 | –
CSc1ccc2c(c1)N(CCC1CCCCN1C)c1ccccc1S2 (stereo not shown) [Thioridazine, reference compound] | – | – | – | – | 6.8×10^8 PFU/ml | – | – | decreased the Rluc activity | 11.6 | 95.4 | –
